Results taken from patent US20110159507A1, “METHOD FOR DETECTING THE DRUG EFFECTS OF DNA METHYLATION-INHIBITORS” (SCHOOL JURIDICAL PERSON THE KITASATO INSTITUTE, priority 2008, published 2011).

Assays:
[1] = test system: K562 PU.1 KD cells (PU 2-10 and PU 3-10); assay: cell viability assay (WST-8), percentages of dead cells after drug administration, PU.1 gene-knockdown cells vs control cells; assay type: cell-based; details: for drug sensitivity of PU.1 gene-knockdown cells to the DNA methylation inhibitor: K562 PU.1 KD cells
Text: FIGS. 1(a) and 1(b) illustrate and show the results of establishment experiments of PU.1-knockdown lines (K562 PU.1 KD cells). That is, a PU.1 siRNA expression vector (Takara, Ohtsu, Japan) and its control vector (Takara) were introduced into K562 cells as leukemia cell lines in accordance with the method described in the document (Takahashi Set al., British Journal of Haematology, 2005 (130), p 428-436). Specifically, in the method, electroporation was employed to introduce the expression vector and its control vector into leukemia cell lines (K562 cells). The introduced cells were cultured in an RPMI medium in the presence of 1 μg/mL puromycin to select cells that constitutively express PU.1 siRNAs and isolate the cells by a limiting dilution method. The isolated control cells (Control K562) (V5 and V6) and PU.1-knockdown cells (2-10 and 3-10) (K562 PU.1 KD cells) were used to prepare proteins based on a conventional method. The proteins were subjected to SDS-PAGE electrophoresis, then transferred to a membrane, and blotted with a PU.1 antibody and β-actin useful for the estimation of protein amounts (FIG. 1(a)).
Two kinds of PU.1 gene-knockdown cells (PU 2-10 and PU 3-10) and control cells (vec 5 and vec 6) were compared for their sensitivities to 5-azadc (AZA) (% effect: percentages of dead cells after drug administration). In other words, the respective cells were seeded in a 96-well plate at a density of 2,000 cells/well, and 5-azadc (AZA) was added into the well at concentrations of 0.2, 1, 3.9, 15.6, 62.5, 250, and 1,000 nM. Then, cell viability assays were performed after 96 hours. In the assays, 10 μL of a WST-8 reagent (Dojindo, Japan) were added to a well in which 100 μL of a cell culture medium had been loaded, culture was performed in a 5% CO2 incubator at 37° C. for 2 hours, and the absorbance is then measured using a microplate reader at a wavelength of 490 nm, to thereby measure cell viability. FIG. 7 illustrates the results in terms of percentages of dead cells (% effect).

[2] = test system: K562 PU.1 OE cells (A2 and H8); assay: cell viability assay (WST-8), percentages of dead cells after drug administration, PU.1 gene-overexpressing cells vs control cells; assay type: cell-based
Text: FIGS. 3(a) and 3(b) illustrate and show the results of establishment experiments of PU.1-overexpressing cell lines (K562 PU.1 OE cells). That is, the PU.1 expression vector described in the literature was used (Inomata et al., Leukemia Research 30 (2006) p 659-664). The expression vector and its control vector pcDNA3.1 (Invitrogen, CA) were introduced into K562 cells as leukemia cell lines in accordance with the method described in literature (Takahashi S et al., British Journal of Haematology, 2005 (130), p 428-436). The introduced cells were cultured in an RPMI medium in the presence of 400 μg/mL Neomycin to select cells that constitutively express PU.1 and isolate the cells by a limiting dilution method. […]
Two kinds of PU.1 gene-knockdown cells (PU 2-10 and PU 3-10) and control cells (vec 5 and vec 6) were compared for their sensitivities to 5-azadc (AZA) (% effect: percentages of dead cells after drug administration). […] In the assays, 10 μL of a WST-8 reagent (Dojindo, Japan) were added to a well in which 100 μL of a cell culture medium had been loaded, culture was performed in a 5% CO2 incubator at 37° C. for 2 hours, and the absorbance is then measured using a microplate reader at a wavelength of 490 nm, to thereby measure cell viability. […]

Row | SMILES | drug sensitivity of PU.1 gene-knockdown cells to the DNA methylation inhibitor [1] | percentages of dead cells (% effect): higher than in control cells (vec 1 and vec 2) by ([2]; A2 and H8, same experiment as FIG. 7 (0.2-1,000 nM, 96 hours), FIG. 8) | drug sensitivity of PU.1 gene-overexpressing cells to the DNA methylation inhibitor ([2]; K562 PU.1 OE cells) | drug sensitivity of PU.1 gene-knockdown cells to the DNA methylation inhibitor ([1]; listed as 5-aza-2′-deoxycytidine) | percentages of dead cells (% effect): lower than in control cells (vec 5 and vec 6) by ([1]; PU 2-10 and PU 3-10, 0.2-1,000 nM, 96 hours, FIG. 7)
1 | Nc1ncn([C@@H]2O[C@H](CO)[C@@H](O)[C@H]2O)c(=O)n1 [5-azacytidine] | resistant | – | – | – | –
2 | Nc1ncn([C@H]2C[C@H](O)[C@@H](CO)O2)c(=O)n1 [5-azadc, 5-aza-2′-deoxycytidine] | resistant and poorly sensitive | about 20% | highly sensitive | resistant | about 20%
